Peptide text beside a SMILES is read from it.
How the values were obtained:
MCF-7 cells [1] = experiment: BrdU incorporation (DNA synthesis), estradiol-stimulated MCF-7 cells; format: cell-based, human; conditions: 24 hrs
Protocol: (§1) DNA synthesis is assayed in single cells by a 6 h pulse with 100 μM (final concentration) BrdU (Boeheringer). Cells on coverslips are fixed, and incubated with diluted (1:1 in PBS) fluorescein-conjugated mouse anti-BrdU mAbs (clone BMC9318 from Boheringer Mannheim Co., IN), then washed three times with PBS. […] All coverslips are washed three times in PBS, inverted and mounted in Moviol (Calbiochem, CA) on glass slides. Slides are analyzed using an Axiophot fluorescent microscope (Zeiss).

LNCaP cells [2] = experiment: BrdU incorporation (DNA synthesis), R1881-stimulated LNCaP cells; format: cell-based, human; conditions: for residual BrdU incorporation: R1881 alone 54%, untreated 20%
androgen receptor = experiment: ARE luciferase reporter gene transcription in LNCaP cells; format: cell-based, human
Protocol: LNCaP cells were transfected with a reporter gene encoding the luciferase gene under the control of an androgen responsive element (ARE 3416) (Castoria et al., 2003). Six hrs after transfection, cells were kept for further 24 hrs in the absence or in presence of 10 nM R1881 alone or with a 1000 fold excess of Casodex or with 1 nM SH3 binder peptide (SEQ.ID NO.1) or 1 nM shuffled sequence of peptide SEQ.ID NO.1 (SEQ.ID. NO.7). Luciferase activity was then assayed in cell lysates. Bar1: unstimulated cells; Bar 2: R1881 treated cells; Bar 3: cells treated with R1881 in the presence of Casodex (Cdx); Bar 4: cells treated with R1881 in the presence of the SH3 binder peptide (SH3); Bar 5: cells treated with R1881 in the presence of the shuffled sequence of peptide SEQ.ID NO.1 (Ss).
LNCaP cells, kept in 5% CO2 in air in RPMI 1640 medium (GIBCO) supplemented with phenol-red, 2 mM L-glutamine (GIBCO), penicillin (100 U/ml), gentamicin (50 μl/ml), insulin and 10% fetal calf serum, are transfected with a reporter gene engineered in a pSG5 expression vector with the luciferase gene under the control of an androgen responsive element (ARE3416) (Verrijdt et al., 2000). […]

AR association with Src = target: T1, AR association with Src (Homo sapiens, UniProt P12931); experiment: Androgen-stimulated AR association with Src, anti-Src co-immunoprecipitation in LNCaP cells; format: cell-based
T1 construct: Cell lysates are submitted to immuno-precipitation using mouse monoclonal anti-Src antibodies; endogenous in cells; host or cells: LNCaP
Protocol: Human prostate cancer LNCaP cells were left unstimulated or stimulated for 2 min with 10 nM R1881 alone or in the presence of 1000-fold excess of Casodex or 1 nM of the SH3-binder peptide or the shuffled sequence of peptide SEQ.ID NO.1 (SEQ.ID NO.7). Cell lysates were incubated with anti-Src antibodies, and the immunoprecipitated proteins resolved on SDS-PAGE and transferred onto nitrocellulose filters. Filters were then blotted with either anti-Src or anti-human AR antibodies to detect AR associated with Src. […] Lane 1: unstimulated cells; lane 2: R1881 treated cells; lane 3: cells treated with R1881 in the presence of Casodex (Cdx); lane 4: cells treated with R1881 in the presence of the SH3 binder peptide (SH3, SEQ.ID NO.1); lane 5: cells treated with R1881 in the presence of the shuffled sequence of peptide SEQ.ID NO.1 (Ss, SEQ.ID NO.7).
Cells are then stimulated with 10 nM R1881 alone or in the presence of a 1000-fold excess of the anti-androgen Casodex or 1 nM of the SEQ.ID NO.1 peptide or 1 nM of the shuffled sequence of peptide SEQ.ID NO.1 (SEQ.ID NO.7) for 2 min, and lysed. Cell lysates are submitted to immuno-precipitation using mouse monoclonal anti-Src antibodies (Clone 327, Oncogene Science, Manhasset, N.Y.). The immuno-precipitated proteins are resolved on a 12% SDS-polyacrylammide gel and thereafter transferred onto nitrocellulose filters. […]

LNCaP cells [3] = experiment: BrdU incorporation (DNA synthesis), EGF-stimulated LNCaP cells; format: cell-based, human; conditions: 24 hrs
Protocol: FIG. 1C. DNA synthesis inhibition of EGF-stimulated human prostate cancer cells by SH3 binder peptide modeled from AR (SEQ. ID NO.1). LNCaP cells were grown in phenol red-free medium added with charcoal-treated serum as previously described and treated for 24 hrs with 100 ng/ml EGF alone or in the presence of a 10 μM of the anti-estrogen ICI 182,780 or 1 nM of the AR-derived (SH3-binder) peptide (SEQ.ID NO.1) or the shuffled sequence of peptide SEQ.ID NO.1 (SEQ.ID NO.7). At the end of the growth factor treatment BrdU incorporation in the cells untreated (control) or treated with EGF alone (EGF) or in the presence of ICI 182,780 (ICI) or the SH3-binder (SH3) or the shuffled sequence of peptide SEQ.ID NO.1 (Ss) was assayed. Data are reported as percentage of cells incorporating BrdU.
(§2) The peptide SEQ.ID NO.1 is finally assayed for its ability to reduce or inhibit EGF induced DNA synthesis in human prostate cancer LNCaP (1C) and MCF-7 (1D) cells. The LNCaP and MCF-7 cells are cultured as described above, then seeded onto coverslips. Cells are then stimulated with 100 ng/ml of highly purified EGF (Boheringer, Calif.) in the absence or in presence of 1 nM peptide SEQ.ID NO.1.
as §1

MCF-7 cells [4] = experiment: BrdU incorporation (DNA synthesis), EGF-stimulated MCF-7 cells; format: cell-based, human; conditions: 24 hrs
Protocol: FIG. 1D. […] MCF-7 cells were grown in phenol red-free medium added with charcoal-treated serum as previously described and treated for 24 hrs with 100 ng/ml EGF alone or in the presence of a 10 μM of the anti-estrogen ICI 182,780 or 1 nM of the AR-derived (SH3-binder) peptide or the shuffled sequence of peptide SEQ ID NO.1 (SEQ.ID. NO.7). At the end of the growth factor treatment, BrdU incorporation in the cells untreated (control) or treated with EGF alone (EGF) or in the presence of ICI 182,780 (ICI) or SH3-binder (SH3) or shuffled sequence of peptide SEQ.ID NO.1 (Ss) was assayed. Data are reported as percentage of cells incorporating BrdU.
as §2, §1

ER association with Src = target: T2, ER association with Src (Homo sapiens, UniProt P12931); experiment: Estrogen-stimulated ER/AR association with Src, anti-Src co-immunoprecipitation in MCF-7 cells; format: cell-based
T2 construct: Cell lysates are submitted to immunoprecipitation using mouse monoclonal anti-Src antibodies; endogenous in cells; host or cells: MCF-7
Protocol: Human breast cancer MCF-7 cells were left unstimulated or stimulated for 2 min with 10 nM 17β estradiol alone or in the presence of a 1000 fold excess of ICI 182,780 or 1 nM of the SH3 binder peptide or the shuffled sequence of peptide SEQ.ID NO.1 (SEQ.ID NO.7). Cell lysates were incubated with anti-Src antibodies, immunoprecipitated proteins were resolved on SDS-PAGE and transferred onto nitrocellulose filters. Filters were then blotted with either anti-Src or anti-human AR antibodies to detect AR associated with Src.
Cells are suspended in 1 ml of lysis buffer: 50 mM Tris-HCl, pH 7.40, containing 5 mM MgCl2, 150 mM NaCl, 0.5% Triton X-100 and left under gentle shaking for 2 min, at 4° C. Suspensions are then centrifuged at about 800 g for 30 min and supernatant collected and used for immunoprecipitation.
To address this point mammary cancer derived MCF-7 cells are grown in 5% CO2 in air in DMEM medium (GIBCO) supplemented with phenol-red, 2 mM L-glutamine (GIBCO), penicillin (100 U/ml), gentamicin (50 μl/ml), hydrocortisone (3.75 ng/ml) insulin (0.2 U.I./ml) and 5% fetal calf serum. The cells are then kept in DMEM without phenol red and supplemented with glutamine, penicillin, gentamicin and insulin as above and containing 5% charcoal-stripped fetal calf serum for additional 4 days. […]

Cyclin D1 [5] = experiment: Androgen-induced cyclin D1 expression, western blot in MCF-7 and LNCaP cells; format: cell-based, human
Protocol: Inhibition of androgen-induced cyclin D1 expression by AR-derived Src-SH3 binder peptide (SEQ.ID NO.1). Quiescent MCF-7 and LNCaP cells were left untreated or treated for 8 hrs with 10 nM R1881 alone or in the presence of 5 μM PI3-kinase inhibitor LY294,002 or 1 nM AR-derived SH3 binder or the shuffled sequence of peptide SEQ.ID NO.1 (SEQ.ID. NO.7). Protein from cell lysates were resolved on SDS-PAGE, then transferred to nitrocellulose filters. […] Lanes 1: unstimulated cells; lanes 2: R1881 treated cells; lanes 3: cells treated with R1881 in the presence of LY294,002 (LY); lanes 4: cells treated with R1881 in the presence of AR-derived (SH3-binder) peptide (SH3); lane 5: cells treated with R1881 in the presence of the shuffled sequence of peptide SEQ.ID NO.1 (Ss).
To verify this possibility, SH3 binder peptide (SEQ.ID NO.1) is added to MCF-7 and LNCaP cells stimulated with the androgen. MCF-7 and LNCaP cells are routinely grown as described above. Cells are then kept for at least 4 days in red phenol-free medium supplemented as described above and added with dextran-coated charcoal treated fetal calf serum to minimize steroid concentration.

Cyclin D1 [6] = experiment: Estrogen-induced cyclin D1 expression, western blot in MCF-7 and LNCaP cells; format: cell-based, human
Protocol: Quiescent MCF-7 and LNCaP cells were left untreated or treated for 8 hrs with 10 nM 17β estradiol alone or in the presence of 5 μM PI3-Kinase inhibitor LY294,002 or 1 nM of the SH3 binder or the shuffled sequence of peptide SEQ.ID NO.1 (SEQ.ID NO.7). Protein from cell lysates were resolved on SDS-PAGE, then transferred to nitrocellulose filters. […] Lanes 1: unstimulated cells; lanes 2: estradiol treated cells; lanes 3: cells treated with estradiol in the presence of LY294,002 (LY); lane 4: cells treated with estradiol in the presence of SH3-binder peptide (SH3); lane 5: cells treated with estradiol in the presence of the shuffled sequence of peptide SEQ.ID NO.1 (Ss).
To test the effect of SH3 binder peptide (SEQ.ID NO.1) on estrogen stimulated Cyclin D1 expression, this peptide is added to LNCaP and MCF-7 cells stimulated with 10 nM 17β-estradiol (FIG. 3B). MCF-7 and LNCaP cells are routinely grown as reported above. Cells are then kept for at least 4 days in red phenol-free medium supplemented as described above and added with dextran-coated charcoal treated fetal calf serum to minimize steroid contamination.

MCF-7 cell xenografts = MCF-7 cell xenografts in nude male mice; conditions: peptide intraperitoneally on alternate days, MCF-7 xenograft mice; data not shown
LNCaP cell xenografts = LNCaP cell xenografts in nude male mice; conditions: peptide intraperitoneally on alternate days, LNCaP xenograft mice; data not shown
[7] = 1 nM peptide with 10 nM R1881, 24 hrs
[8] = 1 nM peptide with 10 nM 17β estradiol

Which BrdU incorporation rate (MCF-7 cells [1]; 10 nM 17β estradiol alone, untreated cells 8%, averaged from six assays) does the source give for `C[C@]12CC[C@@H]3c4ccc(O)cc4CC[C@H]3[C@@H]1CC[C@@H]2O` [17β estradiol] here?
Its BrdU incorporation rate is 61%.

Which “residual BrdU incorporation” value (LNCaP cells [2]; 1000-fold excess with 10 nM R1881, 24 hrs) does the source give for `CC(O)(CS(=O)(=O)c1ccc(F)cc1)C(=O)Nc1ccc(C#N)c(C(F)(F)F)c1` (stereo not shown) [Casodex, biclutamide] here?
Its value is 21%.

What about the “androgen induced transcription of reporter gene” value (androgen receptor; 1000 fold excess with 10 nM R1881, 24 hrs) of the same compound?
Its value is “completely inhibits”.

And the “hormone stimulated Src-AR association (AR co-immunoprecipitated by anti-Src antibodies)” value (AR association with Src; 1000-fold excess with 10 nM R1881, 2 min)?
The value was “abolished”.

With `C[C@]12CC[C@@H]3c4ccc(O)cc4C[C@@H](CCCCCCCCC[S+]([O-])CCCC(F)(F)C(F)(F)F)[C@H]3[C@@H]1CC[C@@H]2O` (stereo partly shown) [ICI 182,780] as the compound, how does the “residual BrdU incorporation” value (LNCaP cells [3]; 10 μM with 100 ng/ml EGF, EGF alone 21%, untreated 8%) read?
The value was 7%.

What about the “residual BrdU incorporation” value (MCF-7 cells [4]; 10 μM with 100 ng/ml EGF, EGF alone 36%, untreated 6%) of the same compound?
Its value is 9%.

What about the “association between ER and Src (co-immunoprecipitation by anti-Src antibodies)” value (ER association with Src; 1000-fold excess with 10 nM 17β estradiol) of the same compound?
Its value is “abolished”.

And the “residual BrdU incorporation” value (MCF-7 cells [1]; 1000-fold excess with 10 nM 17β estradiol, E2 alone 61%, untreated 8%)?
Its value is 7%.

Which “hormone stimulated cyclin expression” value (Cyclin D1 [5]; 5 μM with 10 nM R1881, MCF-7 and LNCaP) does the source give for `O=c1cc(N2CCOCC2)oc2c(-c3ccccc3)cccc12` [LY 294,002] here?
Its value is “abolishes”.

And the “hormone stimulated cyclin expression” value (Cyclin D1 [6]; 5 μM with 10 nM 17β estradiol)?
The value was “abolishes”.

Which “hormone stimulated cyclin expression” value (Cyclin D1 [5]; with 10 nM R1881, concentration not given, data not shown) does the source give for `CC(C)(C)n1nc(-c2ccc(Cl)cc2)c2c(N)ncnc21` [PP2] here?
The value was “abolishes”.

Which BrdU incorporation rate (LNCaP cells [2]; 10 nM R1881 alone, 24 hrs, untreated cells 20%, averaged from six assays) does the source give for `C[C@]1(O)CC[C@H]2[C@@H]3CCC4=CC(=O)CCC4=C3C=C[C@@]21C` [R1881] here?
Its BrdU incorporation rate is 54%.

Which “weight of mice vs vehicle” value (MCF-7 cell xenografts) does the source give for `CC[C@H](C)[C@H](NC(=O)[C@H](CCCNC(=N)N)NC(=O)[C@H](C)NC(=O)[C@H](Cc1c[nH]cn1)NC(=O)[C@@H]1CCCN1C(=O)[C@H](Cc1c[nH]cn1)NC(=O)[C@@H]1CCCN1C(=O)[C@@H]1CCCN1C(=O)[C@@H]1CCCN1C(C)=O)C(=O)N[C@@H](CCCCN)C(N)=O` [SEQ.ID NO.1, Ac-Pro-Pro-Pro-His-Pro-His-Ala-Arg-Ile-Lys-NH2] (Ac-PPPHPHARIK-NH2) here?
Its value is “No difference”.

What about the “weight of mice vs vehicle” value (LNCaP cell xenografts) of the same compound?
The value was “No difference”.

Which results are given for “Ac-His-Pro-Lys-Pro-Ala-Arg-Ile-Pro-His-Pro-NH2 (Ac-HPKPARIPHP-NH2) [SEQ.ID NO.7]”?
BrdU incorporation (residual) (LNCaP cells [3]; 1 nM peptide with 100 ng/ml EGF, EGF alone 21%, untreated 8%): 15%; residual BrdU incorporation (LNCaP cells [2]; [7]): 48%; transcriptional activity of AR (luciferase reporter) (androgen receptor; [7]): neither the SH3 peptide nor the shuffled sequence of peptide SEQ. ID NO.1 affect; hormone stimulated Src-AR association (AR co-immunoprecipitated by anti-Src antibodies) (AR association with Src; 1 nM peptide with 10 nM R1881, 2 min): only slightly affected; Cyclin D induction by R1881 (Cyclin D1 [5]; 1 nM peptide with 10 nM R1881, 6 hrs, MCF-7 and LNCaP): only partially reduces; BrdU incorporation (residual) (MCF-7 cells [4]; 1 nM peptide with 100 ng/ml EGF, EGF alone 36%, untreated 6%): 48%; Cyclin D induction by estrogen (Cyclin D1 [6]; 1 nM peptide with 10 nM 17β estradiol, 6 hrs): a little effect; hormone stimulated receptor-Src association (co-immunoprecipitation by anti-Src antibodies) (ER association with Src; [8]): only slightly affected; effect on estrogen-induced DNA synthesis (MCF-7 cells [1]; [8]): not significant effect

What does the source list for “EGF: highly purified EGF, growth factor used as stimulus”?
BrdU incorporation (LNCaP cells [3]; 100 ng/ml EGF alone, untreated cells 8%): 21%; BrdU incorporation (MCF-7 cells [4]; 100 ng/ml EGF alone, untreated cells 6%): 36%
